What was measured:
Glucose uptake = type: cell-based, rat
[1] = target: T1, intestinal Na-phosphate cotransporter (Rattus norvegicus, UniProt Q9JJ09); type: biochemical; design: other: intestinal BBMV; 3-second exposure of vesicles and substra; 2′-FPP vs 2′-PP; details: read-out: IC50 for inhibition of Na-dependent phosphate uptake
T1 sequence (Q9JJ09 1-695): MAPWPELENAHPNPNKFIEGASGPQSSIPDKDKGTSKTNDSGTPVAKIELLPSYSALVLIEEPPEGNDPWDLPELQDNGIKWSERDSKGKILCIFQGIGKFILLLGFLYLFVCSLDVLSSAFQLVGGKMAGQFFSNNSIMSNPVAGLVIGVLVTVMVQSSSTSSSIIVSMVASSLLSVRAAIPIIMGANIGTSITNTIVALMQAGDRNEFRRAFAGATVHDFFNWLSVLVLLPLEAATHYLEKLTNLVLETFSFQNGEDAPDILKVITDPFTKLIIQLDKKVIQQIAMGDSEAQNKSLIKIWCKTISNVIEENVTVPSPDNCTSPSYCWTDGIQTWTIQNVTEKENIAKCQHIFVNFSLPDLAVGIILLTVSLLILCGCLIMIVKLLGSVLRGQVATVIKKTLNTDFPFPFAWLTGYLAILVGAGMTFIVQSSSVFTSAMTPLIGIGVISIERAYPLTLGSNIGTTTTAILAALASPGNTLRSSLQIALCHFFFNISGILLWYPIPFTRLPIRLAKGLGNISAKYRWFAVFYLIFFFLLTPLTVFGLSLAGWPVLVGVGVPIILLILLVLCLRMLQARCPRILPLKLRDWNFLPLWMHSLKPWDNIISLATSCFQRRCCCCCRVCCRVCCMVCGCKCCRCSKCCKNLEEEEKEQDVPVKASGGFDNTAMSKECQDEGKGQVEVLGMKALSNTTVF

[2] = target: T1, intestinal Na-phosphate cotransporter; type: biochemical
[3] = target: T2, intestinal brush border membrane Na/phosphate cotransporter, NaPi 2b (Rattus norvegicus, UniProt Q9JJ09); assay: cell-based; type: cell-based
T2 construct: Rat duodenum/jejunum intestinal strips 1 cm square were incubated in DMEM; from tissue; host or cells: rat duodenum/jejunum intestinal strips
T2 sequence (Q9JJ09 1-695): T1 sequence (Q9JJ09 1-695)

rat alkaline phosphatase = assay: p-nitrophosphate hydrolysis by rat alkaline phosphatase; type: biochemical
Experimental: The results shown in Example A used a 3-second exposure of vesicles and substrates and a 5 minute exposure of vesicles to 2′-FPP. Prior exposure and degradation of 2′-PP in contrast to 2′-FPP could be contributing to the increased potency of 2′-FPP as compared to 2′-PP. To examine this possibility the effect of phosphophloretins on p-nitrophosphate hydrolysis by rat alkaline phosphatase and intestinal BBMV phosphatases was examined.

[4] = rat, in vivo
[5] = rat, in vivo; remark: listed apart in the source
[6] = tested on: intestinal BBMV phosphatases; type: biochemical

## O=C(CCc1ccc(O)cc1)c1c(O)cc(O)cc1OP(=O)(O)O
Glucose uptake
  Glucose uptake: unaffected
[1]
  IC50: 0.046 µM
[2]
  decrease of IC50 on addition of alkaline phosphatase inhibitors: 34%
[3]
  IC50: 15 µM
  Maximum inhibition of total phosphate absorption: 43±6%
  inhibition of phosphate uptake: 40%
  inhibition of phosphate uptake 6 hours post-drug exposure: less than 35%
Rat alkaline phosphatase
  inhibition of alkaline phosphatase activity, compared with 2′-FPP: better inhibitor
[4]
  change in serum Ca2+: no change
  decrease in serum phosphorus: 30%
[5]
  side effects: no side effects
[6]
  inhibition of intestinal BBMV phosphatase activity: approximately 50%

From US9328128B2 (priority 2010, dated 2016)
